In patent US7132590B2, “Methods of making male-sterile plants by underexpressing allene oxide synthase” (The Arizona Board of Regents on Behalf of the University of …, priority 2001, dated 2006):
Entries after “also recorded” stand apart in the source; their conditions may differ.

Legend:
Arabidopsis aos mutant = format: in vivo, Arabidopsis thaliana; details: for time after application at which aos mutant siliques started to elongate / time for aos mutant siliques to reach the wild-type silique size: after OPDA and MeJA spraying; for rescue of male sterile phenotype (silique elongation, fertility) of aos mutant: flower buds of 4 week old plants, twice a day for two days, 1% LA or 2 mM MeJA sprayed, 1 mM OPDA dipped, siliques monitored two weeks
Method: Application of linolenic acid (LA; Cayman Chemical, USA) and methyl jasmonate (MeJA; Sigma-Aldrich, USA) to recover male sterility of Arabidopsis aos mutant was done by spraying 1% of LA and 2 mM MeJA directly on Arabidopsis flower buds of 4 week old plants grown under long day condition. Oxo-phytodienoic acid (OPDA; Cayman Chemical, USA) was applied by dipping of floral buds in the 1 mM OPDA and 0.01% TritonX-100 (Sigma-Aldrich, USA) solution. These plants were sprayed twice a day for two days. The plants were monitored for silique production over the next two weeks.
The AOS gene is important in jasmonate biosynthesis because it catalyzes the most upstream step in the JA-specific biosynthetic pathway (FIG. 1).

[1] = test system: triple mutant (fad3-2/fad7-2/fad8); details: mutant lacking hexadecatrienoic acid (16:3) and LA (18:3); McConn and Browse (1996); cited from earlier work
[2] = test system: male-sterile mutant (dad1); details: Ishiguro et al. (2001); cited from earlier work

| Structure (SMILES) | time after application at which aos mutant siliques started to elongate (Arabidopsis aos mutant) | time for aos mutant siliques to reach the wild-type silique size (Arabidopsis aos mutant) | rescue of male sterile phenotype (silique elongation, fertility) of aos mutant (Arabidopsis aos mutant) | rescue of male sterility [1] | rescue of sterility phenotype [2] |
| --- | --- | --- | --- | --- | --- |
| CC/C=C\CC1C(=O)CCC1CC(=O)OC (stereo not drawn) [MeJA, methyl jasmonate] | Two | in a week | rescued to wild-type; also recorded: can rescue the aos male sterile phenotype | – | – |
| CC/C=C\C[C@@H]1C(=O)C=C[C@@H]1CCCCCCCC(=O)O [OPDA, Oxo-phytodienoic acid] | Two | in a week | rescued to wild-type | – | – |
| CC/C=C\C[C@H]1C(=O)CC[C@@H]1CC(=O)O [jasmonic acid, Jasmonic acid] | – | – | restoration of essentially wild-type siliques and recovered fertility | could be rescued | could be rescued |
